Values joined by “and” are separate entries in the source; they are usually repeats but may differ in a detail not shown here. Equal values may be shown once. Where a name gives a salt, the structure may show the parent alone.
target: T1, hTA1 (Homo sapiens, UniProt Q96RJ0); experiment: Screen of 89 aminergic compounds at 10 µM, cAMP accumulation in HEK293T cells; assay type: cell-based; conditions: not given;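 also: HEK293T cells co-transfected with hTA1 and GloSensor cAMP reporter, cAMP accumulation detected by luminescence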
T1 construct: expressed in transfected cells; host or cells: HEK293T
T1 sequence (Q96RJ0 1-339): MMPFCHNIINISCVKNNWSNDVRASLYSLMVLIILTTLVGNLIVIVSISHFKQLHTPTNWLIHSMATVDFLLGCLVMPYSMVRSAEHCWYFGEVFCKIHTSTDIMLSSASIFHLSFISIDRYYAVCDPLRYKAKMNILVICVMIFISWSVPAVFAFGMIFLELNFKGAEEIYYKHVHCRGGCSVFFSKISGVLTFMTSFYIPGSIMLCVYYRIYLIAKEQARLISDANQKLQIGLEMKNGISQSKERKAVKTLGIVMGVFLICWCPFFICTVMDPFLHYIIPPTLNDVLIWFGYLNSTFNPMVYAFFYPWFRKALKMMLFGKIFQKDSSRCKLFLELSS

Row | SMILES | Luminescence for Screening Data
1 | CN1CCc2ccccc2Cc2[nH]c3ccccc3c2CC1 [LE300] | 5.7 and 3.6 and 5.5 and 5

same assay, conditions: 10 µM of compound; HEK293T; threshold log2-fold change of 2

Row | SMILES | increase of signal over DMSO-treated controls (hTA1 activation) [fold]
2 | NCCc1c[nH]cn1 [histamine] | ≥ 4

same assay, conditions: quadruplicate values; screen at 10 µM

Row | SMILES | Luminescence for Screening Data
3 | CN1CCN(C2=Nc3ccccc3Oc3ccc(Cl)cc32)CC1.O=C(O)CCC(=O)O [Loxapine succinate salt] | 5.2 and 3.9 and 5.6
4 | CNCCCN1c2ccccc2CCc2ccccc21 [Desipramine] | 6 and 6.2 and 5.6 and 6.1
5 | O=c1[nH]c2ccccc2n1C1CCN(CCCC(c2ccc(F)cc2)c2ccc(F)cc2)CC1 [pimozide] | 4.4 and 4.3 and 5
6 | CNC1(c2ccccc2Cl)CCCCC1=O (centres unmarked) [Ketamine] | 4.7 and 6.1 and 5.5 and 5.6
7 | COC(=O)[C@H]1[C@H]2C[C@@H]3c4[nH]c5cc(OC)ccc5c4CCN3C[C@H]2C[C@@H](OC(=O)c2cc(OC)c(OC)c(OC)c2)[C@@H]1OC [Reserpine] | 10.3 and 8.2 and 7.3 and 7.1
8 | N.N.[Cl][Pt][Cl] [Cisplatin] | 5.8 and 6.4 and 6.9 and 6.2
9 | Cc1nc2n(c(=O)c1CCN1CCC(c3noc4cc(F)ccc34)CC1)CCCC2 [Risperidone] | 6.7 and 6 and 6.8 and 7
10 | NCCc1ccccc1 [B-PEA] | 160.4 and 164.2 and 180.4 and 167
11 | O=C1NCCN1CCN1CCC(c2cn(-c3ccc(F)cc3)c3ccc(Cl)cc23)CC1 [Sertindole] | 7.6 and 9 and 6.3
12 | CNCCC(Oc1ccc(C(F)(F)F)cc1)c1ccccc1 (centres unmarked) [Fluoxetine] | 8.5 and 7.5 and 8.1 and 6.5
13 | O=C(c1ccc(F)cc1)C1CCN(CCn2c(=O)[nH]c3ccccc3c2=O)CC1 [Ketanserin] | 6.8 and 5.5 and 5.4 and 3.9
14 | Cl.O=C1Nc2ccc(Cl)c3c2C1(CCCCN1CC=C(c2ccc(Cl)cc2)CC1)CCC3 (centres unmarked) [DR4485 hydrochloride] | 5.6 and 5.7 and 6.4 and 4.9
15 | O=S(=O)(c1ccccc1)c1cnc2c(N3CCNCC3)cccc2c1 [SB742457] | 9 and 8.4 and 8.8 and 9.7
16 | Oc1cc(O)c2c(c1)O[C@H](c1cc(O)c(O)c(O)c1)[C@H](O)C2 [Epigallocatechin] | 5.2 and 5.7 and 5.9 and 6.3
17 | CCN1CCCC1CNC(=O)c1cc(S(=O)(=O)CC)c(N)cc1OC (centres unmarked) [Amisulpride] | 8 and 6.7 and 8.1 and 7
18 | Cc1nn(C)c(C)c1-c1cccc2c1CC[C@H](N(C)C)C2 [AS19] | 9.8 and 9.9 and 8 and 6.8
19 | CN1[C@@H](CC(=O)c2ccccc2)CCC[C@H]1C[C@H](O)c1ccccc1.CN1[C@@H](CC(=O)c2ccccc2)CCC[C@H]1C[C@H](O)c1ccccc1.O=S(=O)(O)O [Lobeline sulfate] | 7.2 and 5 and 5.7 and 5.4
20 | CN1CCC(c2c[nH]c3ccc(O)cc23)CC1 [BRL 54443] | 10 and 7.1 and 8.1 and 6.4
21 | O=C1c2ccccc2S(=O)(=O)N1CCCCN1CCN(c2ncccn2)CC1 [Ipsapirone] | 6.8 and 5.5 and 5.4
22 | COc1cccc([C@H](O)C2CCN(CCc3ccc(F)cc3)CC2)c1OC [MDL 100907] | 5.4 and 6.7 and 5.2 and 5.8
23 | CN/C(=N/CCSCc1nc[nH]c1C)NC#N [Cimetidine] | 8.3 and 6.6 and 8.6 and 5.4
24 | CNS(=O)(=O)Cc1ccc2[nH]cc(CCN(C)C)c2c1 [Sumatriptan] | 6.2 and 7.3
25 | COc1ccc(CC2NCCc3c2[nH]c2ccc(C)cc32)c(Cl)c1OC.Cl (centres unmarked) [LY266097 hydrochloride] | 5.6 and 6.8 and 5.3 and 5.9
26 | CNc1ccc2c(CCN)cc(=O)oc2c1 [FFN206] | 12.7 and 12.5 and 12.8
27 | COc1ccccc1N1CCN(CCCCN2C(=O)c3ccccc3C2=O)CC1 [NAN190] | 6.8 and 8.1 and 6.1 and 6.2
28 | Cl.N#Cc1ccc(N2CCN(C(=O)COc3ccc4[nH]cc(CCN)c4c3)CC2)cc1 [Donitriptan hydrochloride] | 9.4 and 7.6 and 8.3 and 7.4

Row | SMILES | Luminescence for Screening Data
29 | CN(C)c1ccc(/C=C/c2cc[n+](C)cc2)cc1.[I-] [ASP-iodide] | 6.9 and 6.2 and 4.9 and 4.4
30 | O=C(CCCN1CCC2(CC1)C(=O)NCN2c1ccccc1)c1ccc(F)cc1 [Spiperone] | 6.2 and 8.3 and 7.1 and 6.7
31 | C/C=C(/C)C(=O)O[C@H]1C(C)=C2[C@H]([C@@H]1OC(=O)CCCCCCC)[C@@](C)(OC(C)=O)C[C@H](OC(=O)CCC)[C@@]1(O)[C@H]2OC(=O)[C@@]1(C)O [Thapsigargin] | 6.1 and 7.3 and 5.8 and 7.7
32 | C=CCN1C[C@H](C(=O)N(CCCN(C)C)C(=O)NCC)C[C@@H]2c3cccc4[nH]cc(c34)C[C@H]21 [Cabergoline] | 7.4 and 6.2 and 7 and 5.7
33 | CN1C[C@H](C(=O)N[C@]2(C)O[C@@]3(O)[C@@H]4CCCN4C(=O)[C@H](Cc4ccccc4)N3C2=O)C=C2c3cccc4c3c(cn4C)C[C@H]21.O=C(O)/C=C\C(=O)O [Methylergotamine maleate] | 42.5 and 31.9 and 34.9 and 38.8
34 | NC(=O)c1ccc(F)c2c1C[C@@H](N(C1CCC1)C1CCC1)CO2 [NAD 299] | 6.3 and 5.6 and 4.8 and 5.9
35 | CC(C)[C@@]1(NC(=O)[C@@H]2C[C@@H]3c4cccc5[nH]cc(c45)C[C@H]3N(C)C2)O[C@@]2(O)[C@@H]3CCCN3C(=O)[C@H](Cc3ccccc3)N2C1=O [Dihydroergocristine mesylate] | 5.9 and 6.4 and 5.1 and 5.2
36 | COc1cc(N)c(Cl)cc1C(=O)CCC1CCN(CCNS(C)(=O)=O)CC1.Cl [RS 67506 hydrochloride] | 5.6 and 9 and 4.8 and 5.5
37 | NCCc1c[nH]cn1 [histamine] | 13.5 and 15.3 and 16.1 and 15.1
38 | O=C(CCCCCN1CCN(c2ccccc2-c2ccccc2)CC1)NC1CCCc2ccccc21 (centres unmarked) [LP12] | 5.4 and 4.7 and 7.1 and 5
39 | CSc1ccc2c(c1)C(N1CCN(C)CC1)Cc1ccccc1S2 (centres unmarked) [Methiothepin] | 2.6 and 3.3 and 3 and 3.4
40 | C=CCc1ccccc1OCC(O)CNC(C)C (centres unmarked) [Alprenolol] | 10.1 and 8.4 and 7.8 and 6.7
41 | O=c1c(O)c(-c2ccc(O)c(O)c2)oc2cc(O)cc(O)c12 [Quercetin] | 31.9 and 24.7 and 28.4 and 23.7
42 | Cc1nc2sccn2c(=O)c1CCN1CCC(=C(c2ccc(F)cc2)c2ccc(F)cc2)CC1 [Ritanserin] | 5.6 and 5.8 and 6.1 and 6.3
43 | Cc1[nH]c2ccc(Cl)cc2c1C1=CCNCC1 [EMD386088] | 14.2 and 14.9 and 14.6 and 13.7
44 | CN(C)CCCC1(c2ccc(F)cc2)OCc2cc(C#N)ccc21 (centres unmarked) [Citalopram hydrobromide] | 6.1 and 6.2 and 7.2 and 6.9
45 | COc1ccc(S(=O)(=O)Nc2cc(Cl)cc(Cl)c2OC)cc1N1CCNCC1 [SB399885] | 6.4 and 5.8 and 6.1 and 6.2
46 | CCN1CCC[C@H]1CNC(=O)c1c(O)c(Cl)cc(Cl)c1OC [Raclopride] | 4.1 and 6.9 and 6.4 and 5
47 | Fc1ccc2c(CCNCc3cccc(OCC(F)(F)C(F)F)c3)c[nH]c2c1 [LuAE58054] | 7.5 and 10.3 and 7.4 and 7.7
48 | COc1cc2c(cc1OC)C1CC(=O)C(CC(C)C)CN1CC2 (centres unmarked) [Tetrabenazine] | 6.8 and 8.5 and 6.4 and 8.8
49 | COc1cc2nc(N3CCN(C(=O)c4ccco4)CC3)nc(N)c2cc1OC [Prazosin hydrochloride] | 6.6 and 6.4 and 6.7 and 7.2
50 | Cn1ccc2cc3c(cc21)CCN3C(=O)Nc1cccnc1 [SB206553] | 5.8 and 7.8 and 6.3
51 | O=C(CCCN1CCC(O)(c2ccc(Cl)cc2)CC1)c1ccc(F)cc1 [Haloperidol] | 7.4 and 8.8 and 6.8 and 6.9
52 | CC1CCN(CC[C@H]2CCCN2S(=O)(=O)c2cccc(O)c2)CC1 [SB269970] | 7.2 and 7 and 6.5
53 | CN1CCC(c2cn(C)c3ccc(OS(=O)(=O)c4c(F)cccc4F)cc23)CC1.O=C(O)C(=O)O [SGS 518 oxalate] | 6.7 and 6.8 and 8
